According to patent US10758517B2, “mPGES-1 inhibitor for the treatment of osteoarthritis pain” (Glenmark Pharmaceuticals S.A., priority 2017, dated 2020):
Like-named read-outs stand apart in the source and are kept apart here.

Key:
LPS-induced PGE2 release = test: Ex vivo LPS-induced PGE2 release in whole blood, multiple oral doses for 28 days (Example 2, Part 1); set-up: species or system human; details: for EAUC0-24 h, Difference in LS means (Compound I − placebo) / EAUC0-24 h, LS means / ETmax (time to reach maximum effect), Median / ETmax, median difference from placebo / Eavg0-24 h, Difference in LS means (Compound I − placebo) / Epeak, Difference in LS means (Compound I − placebo) / Emax at 25 mg / Emax at 75 mg / Emax at 130 mg / inhibition at 25 mg / inhibition at 75 mg / inhibition at 130 mg: healthy subjects; for Emax at 25 mg / Emax at 75 mg / Emax at 130 mg / inhibition at 25 mg / inhibition at 75 mg / inhibition at 130 mg: Homo sapiens, po; for Emax at 25 mg / Emax at 75 mg / Emax at 130 mg: read-out: Epeak (maximum effect), LS means; for inhibition at 25 mg / inhibition at 75 mg / inhibition at 130 mg: read-out: Eavg0-24 h (average PGE2 inhibition over 24 hours), LS means
Description: Part 1 consisted of a MAD, double-blind, sequential-group study in healthy subjects. Twenty-four adult male and female subjects were recruited into 3 cohorts. Subjects were enrolled in a sequential manner in cohorts of 8, each randomized in a ratio of 6:2, to receive Compound I or placebo, respectively, for a duration of 28 days. Three dose levels of Compound I (25, 75 and 130 mg) were studied in Cohorts A, B and C, respectively. For each cohort in Part 1, the planned Compound I, qd dosing occurred in the fasted state in the morning on Days 1 to 28, both inclusive. Subjects in each cohort started dosing on the same day, with no less than 5 minutes dose interval between subjects on Day 1.
Concentrations below the limit of quantification were treated as ½ the lower limit of quantification for subsequent calculations.
Time points where unstimulated PGE2 levels were 3 times greater than the mean of unstimulated PGE2 and greater than or equal to half of the baseline for a particular subject were not included in the calculation of these parameters.
Baseline is the mean of Day −1 and pre-dose LPS stimulated PGE2.
Abbreviations: CI=confidence interval; EAUC0-24h=area under the effect-time curve from time zero to 24 hours postdose; Eavg0-24h=the average PGE2 inhibition over 24 hours; Epeak=maximum effect; ETmax=time to reach maximum effect; LS=least squares; N=number of subjects; PGE2=prostaglandin E2; qd=once daily.
^a Median, median difference from placebo and approximate 95% CI.

[1] = Plasma pharmacokinetics after single oral doses (Example 1); type: in vivo, human; details: for dose proportionality of exposure: single oral doses
Description: (§1) In Part 1a, single doses of Compound I of 10 mg (Group A), 30 mg (Group B), 100 mg (Group C), 250 mg (Group D), 500 mg (Group E) and 1000 mg (Group F) were administered after fasting. In each dose group, 6 subjects received Compound I and 2 subjects received placebo.
In Part 2, a dose of 250 mg was administered after fasting. 6 subjects received Compound I and 2 subjects received placebo.
Blood and urine samples for the analysis of plasma and urinary concentrations of Compound I.
(§2) Summary statistics were presented for the PK, pharmacodynamic (PD) and safety data, as appropriate. PK parameters following single oral doses of Compound I were determined from the plasma concentrations of Compound I using non-compartmental procedures in WinNonlin Dose proportionality was assessed using a power model, with tmax analyzed using the Kruskal-Wallis test. The effect of food on PK was assessed at the 100 and 250 mg doses using a mixed effects model. The effect of age on PK was assessed for elderly (>65 years) versus non-elderly (<65 years) at the 250 mg dose level in Parts 1a and 2, using an analysis of variance (ANOVA) with age as a fixed effect. For PD analyses, percent decrease of ex vivo LPS-induced PGE2 release was calculated. For Part 3, urinary excretion of prostanoid metabolites was also evaluated. The data are presented as absolute, as well as creatinine normalized urinary biomarker amounts, along percent change from baseline over a definite time interval. The percent change from baseline in urinary biomarkers was assessed using an analysis of covariance (ANCOVA) model

[2] = Safety and tolerability of single oral doses (Example 1); type: in vivo, human; details: single doses up to 1000 mg
Description: as §1
Adverse events (AEs), vital signs, 12-lead electrocardiogram (ECG), clinical laboratory evaluations and physical examination.
as §2

CC(C)(C)C(=O)NCc1ccc(Cl)c(-c2nn(-c3ccc(C(F)(F)F)cc3)c(=O)[nH]2)c1 [Compound I, N-(4-chloro-3-(5-oxo-1-(4-(trifluoromethyl)phenyl)-4,5-dihydro-1H-1,2,4-triazol-3-yl)benzyl)pivalamide]
EAUC0-24 h, Difference in LS means (Compound I − placebo) (LPS-induced PGE2 release; Day 1, 25 mg qd): 1225 % · h
EAUC0-24 h, LS means (LPS-induced PGE2 release; Day 1, 25 mg qd): 1562 % · h
ETmax (time to reach maximum effect), Median (LPS-induced PGE2 release; Day 1, 25 mg qd): 6.00 h
ETmax, median difference from placebo (LPS-induced PGE2 release; Day 1, 25 mg qd): -6.00 h
Eavg0-24 h, Difference in LS means (Compound I − placebo) (LPS-induced PGE2 release; Day 1, 25 mg qd): 51.6%
Epeak, Difference in LS means (Compound I − placebo) (LPS-induced PGE2 release; Day 1, 25 mg qd): 35.0%
EAUC0-24 h, Difference in LS means (Compound I − placebo) (LPS-induced PGE2 release; Day 1, 75 mg qd): 1218 % · h
EAUC0-24 h, LS means (LPS-induced PGE2 release; Day 1, 75 mg qd): 1555 % · h
ETmax (time to reach maximum effect), Median (LPS-induced PGE2 release; Day 1, 75 mg qd): 23.8 h
ETmax, median difference from placebo (LPS-induced PGE2 release; Day 1, 75 mg qd): 5.77 h
Eavg0-24 h, Difference in LS means (Compound I − placebo) (LPS-induced PGE2 release; Day 1, 75 mg qd): 51.2%
Epeak, Difference in LS means (Compound I − placebo) (LPS-induced PGE2 release; Day 1, 75 mg qd): 26.7%
EAUC0-24 h, Difference in LS means (Compound I − placebo) (LPS-induced PGE2 release; Day 1, 130 mg qd): 1032 % · h
EAUC0-24 h, LS means (LPS-induced PGE2 release; Day 1, 130 mg qd): 1369 % · h
ETmax (time to reach maximum effect), Median (LPS-induced PGE2 release; Day 1, 130 mg qd): 4.00 h
ETmax, median difference from placebo (LPS-induced PGE2 release; Day 1, 130 mg qd): -10.0 h
Eavg0-24 h, Difference in LS means (Compound I − placebo) (LPS-induced PGE2 release; Day 1, 130 mg qd): 43.5%
Epeak, Difference in LS means (Compound I − placebo) (LPS-induced PGE2 release; Day 1, 130 mg qd): 22.3%
EAUC0-24 h, Difference in LS means (Compound I − placebo) (LPS-induced PGE2 release; Day 10, 25 mg qd): 1461 % · h
EAUC0-24 h, LS means (LPS-induced PGE2 release; Day 10, 25 mg qd): 1443 % · h
ETmax (time to reach maximum effect), Median (LPS-induced PGE2 release; Day 10, 25 mg qd): 5.00 h
ETmax, median difference from placebo (LPS-induced PGE2 release; Day 10, 25 mg qd): -7.00 h
Eavg0-24 h, Difference in LS means (Compound I − placebo) (LPS-induced PGE2 release; Day 10, 25 mg qd): 61.3%
Epeak, Difference in LS means (Compound I − placebo) (LPS-induced PGE2 release; Day 10, 25 mg qd): 45.0%
EAUC0-24 h, Difference in LS means (Compound I − placebo) (LPS-induced PGE2 release; Day 10, 75 mg qd): 1560 % · h
EAUC0-24 h, LS means (LPS-induced PGE2 release; Day 10, 75 mg qd): 1542 % · h
ETmax (time to reach maximum effect), Median (LPS-induced PGE2 release; Day 10, 75 mg qd): 12.0 h
ETmax, median difference from placebo (LPS-induced PGE2 release; Day 10, 75 mg qd): -0.0333 h
Eavg0-24 h, Difference in LS means (Compound I − placebo) (LPS-induced PGE2 release; Day 10, 75 mg qd): 65.4%
Epeak, Difference in LS means (Compound I − placebo) (LPS-induced PGE2 release; Day 10, 75 mg qd): 42.7%
EAUC0-24 h, Difference in LS means (Compound I − placebo) (LPS-induced PGE2 release; Day 10, 130 mg qd): 1392 % · h
EAUC0-24 h, LS means (LPS-induced PGE2 release; Day 10, 130 mg qd): 1374 % · h
ETmax (time to reach maximum effect), Median (LPS-induced PGE2 release; Day 10, 130 mg qd): 4.00 h
ETmax, median difference from placebo (LPS-induced PGE2 release; Day 10, 130 mg qd): -6.03 h
Eavg0-24 h, Difference in LS means (Compound I − placebo) (LPS-induced PGE2 release; Day 10, 130 mg qd): 58.4%
Epeak, Difference in LS means (Compound I − placebo) (LPS-induced PGE2 release; Day 10, 130 mg qd): 40.9%
EAUC0-24 h, Difference in LS means (Compound I − placebo) (LPS-induced PGE2 release; Day 28, 25 mg qd): 1281 % · h
EAUC0-24 h, LS means (LPS-induced PGE2 release; Day 28, 25 mg qd): 1621 % · h
ETmax (time to reach maximum effect), Median (LPS-induced PGE2 release; Day 28, 25 mg qd): 2.00 h
ETmax, median difference from placebo (LPS-induced PGE2 release; Day 28, 25 mg qd): -6.00 h
Eavg0-24 h, Difference in LS means (Compound I − placebo) (LPS-induced PGE2 release; Day 28, 25 mg qd): 53.4%
Epeak, Difference in LS means (Compound I − placebo) (LPS-induced PGE2 release; Day 28, 25 mg qd): 18.0%
EAUC0-24 h, Difference in LS means (Compound I − placebo) (LPS-induced PGE2 release; Day 28, 75 mg qd): 1356 % · h
EAUC0-24 h, LS means (LPS-induced PGE2 release; Day 28, 75 mg qd): 1696 % · h
ETmax (time to reach maximum effect), Median (LPS-induced PGE2 release; Day 28, 75 mg qd): 10.0 h
ETmax, median difference from placebo (LPS-induced PGE2 release; Day 28, 75 mg qd): 0.0333 h
Eavg0-24 h, Difference in LS means (Compound I − placebo) (LPS-induced PGE2 release; Day 28, 75 mg qd): 56.4%
Epeak, Difference in LS means (Compound I − placebo) (LPS-induced PGE2 release; Day 28, 75 mg qd): 21.2%
EAUC0-24 h, Difference in LS means (Compound I − placebo) (LPS-induced PGE2 release; Day 28, 130 mg qd): 1192 % · h
EAUC0-24 h, LS means (LPS-induced PGE2 release; Day 28, 130 mg qd): 1531 % · h
ETmax (time to reach maximum effect), Median (LPS-induced PGE2 release; Day 28, 130 mg qd): 12.0 h
ETmax, median difference from placebo (LPS-induced PGE2 release; Day 28, 130 mg qd): 0.177 h
Eavg0-24 h, Difference in LS means (Compound I − placebo) (LPS-induced PGE2 release; Day 28, 130 mg qd): 49.6%
Epeak, Difference in LS means (Compound I − placebo) (LPS-induced PGE2 release; Day 28, 130 mg qd): 13.9%
Emax at 25 mg (LPS-induced PGE2 release; 24 h, Day 1, 25 mg qd): 90.4%
Emax at 75 mg (LPS-induced PGE2 release; 24 h, Day 1, 75 mg qd): 82.1%
Emax at 130 mg (LPS-induced PGE2 release; 24 h, Day 1, 130 mg qd): 77.8%
Emax at 25 mg (LPS-induced PGE2 release; 240 h, Day 10, 25 mg qd): 83.7%
Emax at 75 mg (LPS-induced PGE2 release; 240 h, Day 10, 75 mg qd): 81.4%
Emax at 130 mg (LPS-induced PGE2 release; 240 h, Day 10, 130 mg qd): 79.6%
Emax at 25 mg (LPS-induced PGE2 release; 672 h, Day 28, 25 mg qd): 84.2%
Emax at 75 mg (LPS-induced PGE2 release; 672 h, Day 28, 75 mg qd): 87.4%
Emax at 130 mg (LPS-induced PGE2 release; 672 h, Day 28, 130 mg qd): 80.1%
inhibition at 25 mg (LPS-induced PGE2 release; Day 1, 25 mg qd): 65.7%
inhibition at 75 mg (LPS-induced PGE2 release; Day 1, 75 mg qd): 65.4%
inhibition at 130 mg (LPS-induced PGE2 release; Day 1, 130 mg qd): 57.6%
inhibition at 25 mg (LPS-induced PGE2 release; Day 10, 25 mg qd): 60.6%
inhibition at 75 mg (LPS-induced PGE2 release; Day 10, 75 mg qd): 64.7%
inhibition at 130 mg (LPS-induced PGE2 release; Day 10, 130 mg qd): 57.6%
inhibition at 25 mg (LPS-induced PGE2 release; Day 28, 25 mg qd): 67.5%
inhibition at 75 mg (LPS-induced PGE2 release; Day 28, 75 mg qd): 70.6%
inhibition at 130 mg (LPS-induced PGE2 release; Day 28, 130 mg qd): 63.8%
inhibition of ex-vivo LPS-induced PGE2 release (in words) (LPS-induced PGE2 release; multiple oral doses 25 mg to 130 mg qd, Days 1, 10 and 28): marked drug-related inhibition
time by which maximal inhibition was reached (LPS-induced PGE2 release; post-dose on Day 1, each dose level (first sampling occasion)): ≤ 30 min
dose proportionality of exposure ([1]; 10 to 250 mg dose range): Near proportional increases
pharmacokinetic differences in elderly subjects ([1]; elderly subjects, single dose 250 mg): No notable pharmacokinetic differences
dose proportionality of exposure ([1]; higher doses (250 to 1000 mg)): sub-proportional increases
half-life ([1]; human, plasma, single oral doses 10 to 1000 mg, independent of dose, read-out: mean T1/2): 41.7 to 54.5 h
Tmax ([1]; human, plasma, single oral doses of 10 and 30 mg, read-out: median Tmax): 2 h
dose effect on incidence or severity of treatment-emergent AEs [2]: no evidence of a dose effect
lab abnormalities or ECG findings [2]: No clinically significant lab abnormalities or ECG findings
tolerability ([2]; healthy adult subjects): well tolerated
